A word on the Hill slope: it is a measure of the steepness of the concentration-response curve. Broadly, the EC50 is the concentration at which the effect is half-maximal.

One experiment has as its target T1, VAPA (Homo sapiens, UniProt Q9P0L0).
T1 construct: dose–responses (mean over replicates), derived from TPP-CCR experiments in living cells; endogenous in cells; host or cells: HL-60 cells (ATCC No. CCL-240)
T1 sequence (Q9P0L0 1-249): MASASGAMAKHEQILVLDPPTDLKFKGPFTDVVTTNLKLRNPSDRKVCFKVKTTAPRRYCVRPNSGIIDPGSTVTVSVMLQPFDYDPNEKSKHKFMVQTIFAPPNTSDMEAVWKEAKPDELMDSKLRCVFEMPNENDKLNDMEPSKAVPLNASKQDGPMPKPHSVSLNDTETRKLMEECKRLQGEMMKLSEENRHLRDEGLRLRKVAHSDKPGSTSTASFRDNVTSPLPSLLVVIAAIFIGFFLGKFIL
Put plainly: TPP-CCR in living HL-60 cells. The class given is cell-based. The text has this:
(§1) Therefore, we performed TPP with compound concentration range (TPP-CCR) experiments according to published procedures. In brief, after preparing tryptic peptides from the non-denatured protein fractions (used for immunoblotting in the previous sections) applying the SP3 method, the peptides were labeled using TMT10plex, coding for inhibitor concentration, and the samples belonging to a TMT set were combined, offline high-pH fractionated, and analyzed by MS.
HL-60 cells were expanded as described above for CETSA and TPP-TR to 1.25 million cells per milliliter. […] A number of 2.5 million cells in 2 mL of medium were added to each tube and incubated (1 h, 37 °C). After centrifugation (300 rcf, 3 min, r.t.) and removing all of the supernating culture medium, the cells were washed once with 2 mL and once with 0.5 mL PBS (r.t.) by gently resuspending the cells, followed by centrifugation (300 rcf, 3 min, r.t.) and the complete removal of the supernatants.
After transferring the cells from the 2 mL Eppendorf tubes into correspondingly labeled PCR tubes (tube strips) using 100 µL of ice-cold PBS supplemented with protease inhibitors for resuspending the cells, the samples were further processed as described above for CETSA and TPP-TR, however, by applying a single treatment temperature of 51 °C.
For each sample set comprising ten compound concentration range samples, a same volume of the cell extracts containing the fraction of soluble, non-denatured proteins, corresponding to an average of 5 µg total protein, was used for further analysis. The calculated volume was respectively transferred into PCR tubes of a tube strip and supplemented with SDS sample buffer without DTT and bromophenol blue (final concentrations: 7.5% glycerol, 3% SDS, 37.5 mM Tris/HCl pH 7.0) and ddH2O to a final volume of 10 µL, respectively. Reduction and alkylation were performed by addition of 2.5 µL 100 mM dithiothreitol (DTT; incubation: 20 min, 56 °C, 1000 rpm in an Eppendorf ThermoMixer C, covering the tubes with aluminum foil to minimize condensation in the lids) and 3.33 µL 300 mM iodoacetamide (IAA; incubation: 15 min, r.t., in the dark without shaking), as well as 2.5 µL 100 mM DTT (incubation: 15 min, r.t., without shaking; quenching of excess of IAA). […] The beads were collected and washed (3× 200 µL 80% ethanol p.a. in HPLC-MS grade water, 1 × 200 µL acetonitrile (ACN; HPLC gradient grade)) using a device for handling of magnetic particles [patent US20100200405A1]. The ACN of the last washing step was completely removed by aspiration without letting the beads dry out.
Tryptic digest was performed on-bead by resuspending (use of an ultrasound bath may be required) the beads in 20 µL 50 mM TEAB in HPLC-MS grade water containing 0.1 µg Trypsin/Lys-C mix and 16.5 h incubation at 37 °C and 1000 rpm (Eppendorf ThermoMixer C, covering the tubes with aluminum foil to minimize condensation in the lids). Tryptic fragmentation of proteins was optimized by addition of another 0.1 µg of Trypsin/Lys-C mix in 2 µL 50 mM TEAB and 4 h incubation at 37 °C and 1000 rpm. After centrifugation for about 1 min in a table top centrifuge and magnetic concentration and retention of the beads at the inner tube wall, the supernatants containing the peptides were transferred into new PCR tubes (of tube strips) and were stored at −80 °C. The beads were discarded.
Half of the peptide samples (11 µL containing about 2.5 µg peptides) were transferred into new PCR tubes (of tube strips) and allowed to equilibrate to r.t. TMT labeling reagents were reconstituted as described for the TPP-TR samples, and 1 µL each was added to the reconstituted peptides according to the following scheme and homogenized immediately by aspiration and dispensing:
Peptide separation was performed as described above for the analysis of TPP-TR samples. […]

The target of the next experiment is T2, MAPK3 (Homo sapiens, UniProt P27361).
T2 construct: endogenous in cells; host or cells: HL-60 (ATCC CCL-240)
Put plainly: TPP-CCR in living HL-60 cells. It counts as cell-based.
Source text: as §1
HL-60 cells were expanded as described above for CETSA and TPP-TR to 1.25 million cells per milliliter. […] A number of 2.5 million cells in 2 mL of medium were added to each tube and incubated (1 h, 37 °C). […]
For each sample set comprising ten compound concentration range samples, a same volume of the cell extracts containing the fraction of soluble, non-denatured proteins, corresponding to an average of 5 µg total protein, was used for further analysis. The calculated volume was respectively transferred into PCR tubes of a tube strip and supplemented with SDS sample buffer without DTT and bromophenol blue (final concentrations: 7.5% glycerol, 3% SDS, 37.5 mM Tris/HCl pH 7.0) and ddH2O to a final volume of 10 µL, respectively. […]

Setting [1] is: living HL-60 cells, […] °C, TMT-MS.

T2 sequence (P27361 whole entry): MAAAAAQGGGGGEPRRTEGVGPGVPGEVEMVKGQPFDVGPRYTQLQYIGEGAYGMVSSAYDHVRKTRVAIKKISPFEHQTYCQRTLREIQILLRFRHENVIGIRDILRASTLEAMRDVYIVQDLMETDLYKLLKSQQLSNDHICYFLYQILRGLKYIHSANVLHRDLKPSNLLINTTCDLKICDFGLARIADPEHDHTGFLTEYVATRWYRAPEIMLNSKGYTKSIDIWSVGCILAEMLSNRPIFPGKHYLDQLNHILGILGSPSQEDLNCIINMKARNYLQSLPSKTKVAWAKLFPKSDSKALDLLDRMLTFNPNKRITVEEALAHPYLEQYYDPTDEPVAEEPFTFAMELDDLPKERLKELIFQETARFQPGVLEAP

In turn, `Cc1cnc(Nc2ccc(F)cc2Cl)nc1-c1c[nH]c(C(=O)N[C@H](CO)c2cccc(Cl)c2)c1` [ERK 11e] gave a Hill slope on VAPA (TPP-CCR, living cells, VAPA) of 0.66. Moreover, at VAPA (setting [1]), the midpoint of the response, the EC50, lay at 1550 nM and the “Hill slope (VAPA)” value was found to be 0.66. The compound also showed a Hill slope at MAPK3 (TPP-CCR, living cells, MAPK3) of 0.59. For the same compound, the “Hill slope (MAPK3)” value at MAPK3 (setting [1]) is 0.59.

The values above are taken from paper PMC9147192, “Small Molecule Arranged Thermal Proximity Coaggregation (smarTPCA)—A Novel Approach to Characterize Protein–Protein Interactions in Living Cells by Similar Isothermal Dose–Responses” (International Journal of Molecular Sciences, 2022).
